Measurements reported in patent US9198957B2, “Treatment and prevention of bacterial vaginosis and Gardnerella vaginalis infections” (The Trustees of Columbia University in the City of New York, priority 2011, dated 2015).

Assays:
Atopobium vaginae = conditions: reference (80); cited from earlier work
strain 49145 = assay: MIC by E-test, strain 49145; type: cell-based, Gardnerella vaginalis; conditions: Mueller-Hinton agar with 5% sheep's blood, CLSI, repeated twice
strain ARG3 = assay: MIC by E-test, strain ARG3; type: cell-based, Gardnerella vaginalis; conditions: Mueller-Hinton agar with 5% sheep's blood, CLSI, repeated twice
[1] = reference (77); cited from earlier work
[2] = tested on: BV and G. vaginalis infections; conditions: cited from earlier work
[3] = tested on: Gardnerella strain 49145 biofilm; assay: Inhibition of newly forming biofilm (safranin stain, A462), strain 49145; type: cell-based, Gardnerella vaginalis; conditions: for reduction in biofilm formation (% biofilm density): FIG. 6
Method: (§1) Biofilms of multiple Gardnerella strains [G. Vaginalis is the only species in the genus Gardnerella.] were grown, separately, in vitro in 96-well plates in BHI-supplemented media. Bovine pancreas DNase was added in varying concentrations to biofilm cultures at 0 hours (newly forming biofilms) and 24 hours (established biofilms.) The biofilms were washed, the supernatant was removed, and the biofilms were stained with safranin and solubilized in acetic acid. Biofilm absorbance at A462 nm was measured with a spectrophotometer, which method quantifies the amount of safranin stain taken up by the biofilm. DNase-treated and untreated biofilms were also grown in chamber slides and DAPI staining was performed for fluorescence microscopy.
(§2) Biofilms were grown in the presence of varying concentrations of antibiotic and DNase administered at t=0 hours to test the effect of the agents on biofilm formation. To test the effects on the degradation of established biofilms, the agents were administered at t=24 hours.
All cultures and biofilms were grown in ‘biofilm media’ (BHI media+0.3% starch, 0.3% glucose, 0.5 mcg/mL amphotericin B) at 37° C. and 5% CO2. Liquid cultures of strains 49145 or ARG3 were grown overnight to a standardized OD600 of 0.6 and diluted 1:10 prior to aliquoting for biofilms. Cultures were aliquoted into 96-well plates as follows:
(§3) 180 μL of bacteria and 20 μL of DNase at varying concentrations (1:10 dilutions of 1 mg/mL to final concentrations in the wells as labeled in the figures) or PBS as a control (total volume always 200 μL) were added together at t=0 hours and incubated for 24 hours. They were then washed, stained with safranin and solubilized with ascetic acid, with measurement of absorbance at 462 nm to quantify density of stained material.
160 μL of culture, 20 µL of antibiotic at varying concentrations (1:10 and 2-fold dilutions to final concentrations in wells as labeled in the figures), and 20 μL of DNase at varying concentrations (1:10 dilutions as above) with 20-40 μL of PBS used when necessary for controls (wells without antibiotic, DNase, or both) were added to wells at t=0 hours and incubated for 24 hours as above. Biofilms were quantified as above.

[4] = tested on: Gardnerella strain ARG3 biofilm; assay: Inhibition of newly forming biofilm (safranin stain), strain ARG3; type: cell-based, Gardnerella vaginalis; conditions: DNase 10 μg/ml and 100 μg/ml, time=0 hours; FIG. 2
Method: as §1
Biofilms were grown in the presence of varying concentrations of antibiotic and DNase administered at t=0 hours to test the effect of the agents on biofilm formation. […]
as §3, with “material. […]” for “material.”

[5] = tested on: established Gardnerella strain 49145 biofilms; assay: Breakdown of established (24 h) biofilm, strain 49145; type: cell-based, Gardnerella vaginalis; conditions: DNase administered at t=24 hours; FIG. 3
Method: as §1, §2
(§4) All cultures and biofilms were grown in ‘biofilm media’ (BHI media+0.3% starch, 0.3% glucose, 0.5 mcg/mL amphotericin B) at 37° C. and 5% CO2. Liquid cultures of strains 49145 or ARG3 were grown overnight to a standardized OD600 of 0.6 and diluted 1:10 prior to aliquoting for biofilms. […]
(§5) For quantification as above, antibiotic concentrations were chosen based on the MIC (⅛-4× MIC).

[6] = tested on: established Gardnerella strain ARG3 biofilms; assay: Breakdown of established (24 h) biofilm, strain ARG3; type: cell-based, Gardnerella vaginalis; conditions: DNase administered at t=24 hours; FIG. 4
Method: as §1, §2, §4, §5

[7] = tested on: group B Streptococcus biofilm; assay: Inhibition of group B Streptococcus biofilm formation (A462); type: cell-based; conditions: DNase 100 μg/ml, t=0 hours; FIG. 17
Method: as §1, §3
The results depicted in FIG. 17 show the dose-response inhibition of group B Streptococcus biofilm formation by DNase that was administered at t=0 hours as assessed by measuring the absorbance of light at 462 nm (A462).

[8] = tested on: ATCC Gardnerella strain 49145 biofilms; assay: Liberation of bacteria from biofilm into supernatant / bacterial killing (colony counts); type: cell-based, Gardnerella vaginalis
Method: Further experiments were conducted to assess whether there is an improved effect on biofilm formation and breakdown by the combined administration of DNase and antibiotics against Gardnerella. The y axis plots the % of biofilm absorbance A462 for each condition. […] The minimum inhibitory concentration (MIC) for the antibiotics was measured by E-testing the relevant strains. Colony counts were performed on both the supernatant and the biofilm components of the culture, and a one-way ANOVA with Bonferroni post-tests were performed using Prism (Graphpad) where DNase was administered at time=24 hours.

G. Vaginalis ARG37 = assay: Murine model of vaginal colonization; type: in vivo; conditions: co-inoculation with DNase, mice, strain ARG37; FIG. 16
Source text: The same strategy works in the complex environment of the lower genital tract in murine models of vaginal colonization. Models for vaginal colonization of mice with G. Vaginalis and group B Streptococcus have been developed. […] FIG. 16. These models will important in prophylactic use in at-risk populations including, but not limited to, pregnant women, those individuals infected with sexually transmitted diseases including HIV, and those individuals with recurrent BV.

Gardnerella biofilms = assay: Fluorescence microscopy of DNase-treated biofilms; type: cell-based, Gardnerella vaginalis; conditions: DNase-treated vs untreated biofilms
[9] = tested on: biofilms made by G. vaginalis; conditions: Patterson et al. 2007; cited from earlier work

penicillin
Etest susceptibility concentration (range) (Atopobium vaginae): 0.008 to 0.25 µg/mL

CC(=O)NC[C@H]1CN(c2ccc(N3CCOCC3)c(F)c2)C(=O)O1 [linezolid]
Etest susceptibility concentration (range) (Atopobium vaginae): 0.016 to 0.125 µg/mL

Cc1ncc([N+](=O)[O-])n1CCO [metronidazole]
Minimum Inhibitory Concentration (MIC) (strain 49145): 4
Minimum Inhibitory Concentration (MIC) (strain ARG3): 4
half-life [1]: 6 to 7 h
cure rates (by Amsel criteria) ([2]; at four weeks, oral regimens for one week): approximately 80%
early rates of clinical cure ([2]; multiple divided-dose oral regimens for one week): > 90%

CC[C@H]1OC(=O)[C@H](C)[C@@H](O[C@H]2C[C@@](C)(OC)[C@@H](O)[C@H](C)O2)[C@H](C)[C@@H](O[C@@H]2O[C@H](C)C[C@H](N(C)C)[C@H]2O)[C@](C)(O)C[C@@H](C)CN(C)[C@H](C)[C@@H](O)[C@]1(C)O [azithromycin]
Etest susceptibility concentration (range) (Atopobium vaginae): <0.016 to 0.32 µg/mL

DNase
extent of biofilm formation (A462) ([3]; DNase 10 μg/ml and 100 μg/ml, administered at time=0 hours, FIG. 1): dramatic reduction
reduction in biofilm formation (% biofilm density) ([3]; DNase alone 1 μg/mL, t=0 hours): 30%
reduction in biofilm formation (A462) ([3]; DNase alone 1 μg/mL, t=0 hours, FIG. 8 (C)): 30%
reduction in biofilm formation (% biofilm density) ([3]; DNase alone 100 μg/mL, t=0 hours): 75%
extent of biofilm formation (% biofilm density) [4]: dramatic reduction
breakdown of established biofilms [5]: dose-dependent breakdown
breakdown of established biofilms [6]: dose-dependent breakdown
extent of biofilm formation (A462) [7]: dramatic reduction
bacterial killing in biofilm cultures ([8]; DNase alone): does not kill the bacteria
release of biofilm-embedded bacteria ([8]; DNase, FIGS. 13-15): released into the supernatant
establishment of vaginal colonization (G. Vaginalis ARG37): inhibited the establishment of colonization
biofilm matrix and overall density by fluorescence microscopy (Gardnerella biofilms): decrease in the biofilm matrix and in overall density
reduction in biofilm formation or breakdown [9]: no reduction in biofilm formation or breakdown

CCS(=O)(=O)CCn1c([N+](=O)[O-])cnc1C [Tinidazole]
half-life [1]: 12 to 14 h

CC1(C)S[C@@H]2[C@H](NC(=O)[C@H](N)c3ccccc3)C(=O)N2[C@H]1C(=O)O [ampicillin]
Etest susceptibility concentration (range) (Atopobium vaginae): <0.016 to 0.94 µg/mL

O=C(O)c1cn(C2CC2)c2cc(N3CCNCC3)c(F)cc2c1=O [ciprofloxacin]
Etest susceptibility concentration (range) (Atopobium vaginae): 0.023 to 0.25 µg/mL
